Experimental data as given in patent US9861647B2 (Prelief Inc., priority 2007, dated 2018).
“Also recorded” adds a separate entry of the source.

Tested on: histamine, leukotriene C4/D4/E4, prostaglandin D2 and E2 in nasal lavage fluid
Assay: Mediators (histamine, leukotrienes, prostaglandins) in nasal lavage fluid after intranasal ragweed challenge
Type: in vivo, Beagle dogs
Method: Ragweed sensitized beagle dogs (n=5) with preexisiting nasal and airway allergic responses were utilized in the animal study described in this Example. Dogs served as their own control and initially were treated with vehicle (sterile water) and then rested for 5 weeks prior to receiving the test compound. […] Based on the aerosol testing only 1.6 mg/dog could be delivered by inhalation during a 15 minute exposure (20 mg/ml solution). In addition, each dog received twice daily an intranasal instillation of 30 mg (2×375 μl of 20 mg/ml in each nostril) given within 30 minutes after the end of the inhalation exposures.
FIG. 1 summarizes the study design for characterizing the effects of CGP on rhinitis symptoms in ragweed sensitized Beagle dogs. The baseline nasal cavity volume was first measured 3 days (day −3) before each of the vehicle and CGP treatments. The dogs were treated with vehicle or CGP (day 0) twice daily with the target dosage described above. Three days into the vehicle or CGP treatment, nasal challenge with ragweed was performed (day 3). Treatment with vehicle or CGP continued during the assessment of rhinitis endpoints, e.g., total treatment duration=6 days (day 0-5) for each of the vehicle and CGP treatments. There were 5 weeks following the first intranasal RW challenge during the vehicle treatment and the CGP treatment.
Vehicle (sterile water) was given twice daily by inhalation (15 minutes) followed by intranasal instillation of water (2×250 μl in each nostril). […] The test-article and the compound solution were prepared in the morning of each treatment day. Vehicle and test-article were administered by inhalation and intranasal instillation twice a day. Dosing of vehicle or test compound was achieved by utilizing a face mask connected to a jet nebulizer for inhalation delivery followed by intranasal instillation in both nostrils using an Accuspray device.
Rhinitis assessments were conducted using one or more of the following tests. • Nasal cavity geometry (AcR) pre/post antigen challenge in both nares • 1. time 0 (just prior to RW instillation) • 2. at 15, 30, 45, 60, 75, 90 min, 24 h and 48 h post RW challenge • Nasal lavage of both nares at baseline and at 24 h (Day 4) and 48 h (Day 5) post RW instillation and only one side at 15, 30, 45 and 60 min post RW challenge (Day 3) • 1. Release of histamine, leukotrienes and prostaglandins in nasal lavage fluid baseline (prior to compound or RW treatment/challenge), 15, 30, 45, 60 min and 24 h post RW instillation • 2. Nasal lavage cells from the baseline (Day-3), 24 h (Day 4) and 48 h (Day 5) hour lavage were used for determination of inflammatory cell differentials • 3. Excess nasal lavage fluid was frozen for analysis of cytokines. • Cardiovascular readouts (heart rate, O2 saturation, body temperature) throughout nasal congestion measurement.
While under anesthesia a flexible plastic catheter was inserted several centimeters into the dog's nare. The nare was washed with a phosphate buffered saline solution (PBS; 3×5 ml for collection of cells [baseline, 24 and 48 h post RW challenge]; 1×5 ml for collection of fluid for mediators [15, 30, 45, and 60 minutes post RW challenge]).
Total nasal cells were determined using an automatic cell counter. Cells were spun onto slides by cytocentrifugation and stained with a modified Wright-Giemsa stain. At least four hundred inflammatory cells (or less if applicable) were counted and the percentage of specific cell types determined for each animal (slides in duplicates, 200 cells per slide). The first lavage fluid sample (after centrifugation) was frozen separately for mediator analysis. Mediator analysis for histamine, leukotrienes, and prostaglandins were performed according to the kit manufacturer instructions (Immunotech—Beckman Coulter Company #IM2015, Neogen Corporation #406410, Cayman Chemical Company: PGE2—#514010, PGD2—#512011, respectively). […]

[1] = before and after ragweed challenge, vs vehicle, n=5, One Way Anova, Dunnett's posttest

Substance: calcium glycerophosphate
- histamine levels in nasal lavage fluid [1]: no statistical significance was reached
- levels of leukotriene C4/D4/E4 in nasal lavage fluid [1]: no statistical significance was reached
- prostaglandin D2 levels in nasal lavage fluid [1]: no statistical significance was reached
- prostaglandin E2 levels in nasal lavage fluid [1]: Levels of PGE2 decreased following ragweed challenge; also recorded: no statistical significance was reached
- histamine, leukotriene and prostaglandin D2 and E2 levels in nasal lavage fluid (compound vs vehicle treatment, statistical significance not reached): partially altered
- prostaglandin E2 levels normalized to baseline (T0 = 100%) (vs vehicle, Two Way Anova p<0.009, no significance at individual time points): a greater reduction in PGE2 levels following RW challenge; also recorded: significantly attenuated compared to vehicle treatment
- AUC of histamine levels between 0 and 60 min (vs vehicle, n=5): histamine levels decreased in two of the 5 dogs, no statistical significance was reached
- AUC of prostaglandin D2 levels between 0 and 60 min (vs vehicle, n=5): prostaglandin D2 levels decreased in three dogs and increased in two dogs and no statistical significance was reached
